Where two headings read alike, the source gives them in different places.
Tests used:
[1] = seven-day twice-daily mouthwash swilling, staining of teeth and tongue; format: in vivo; settings: 0.2% mouthwash swilled twice daily for seven days
Method: FIG. 1 panel B illustrates staining of the teeth caused when contacted over a seven-day period with Chlorhexidine 0.2% twice daily for one minute (panel A is a control showing seven days rinsing with Delmopinol 0.2% twice daily 10 ml for one minute);
FIG. 2 panel B illustrates staining of the tongue when contacted over a seven day period with Chlorhexidine 0.2% twice daily for one minute (panel A is a control showing seven days rinsing with Delmopinol 0.2% twice daily 10 ml for one minute); and
A subject swilled their mouth twice daily with a 0.2% chlorhexidine mouthwash for seven days.
As a separate control, the subject swilled their mouth twice daily with a 0.2% delmopinol mouthwash for seven days.

[2] = removal of chlorhexidine staining by a single one-minute brushing of the teeth; format: in vivo; settings: subject with staining after seven days of chlorhexidine, brushed once, toothbrush soaked in 0.2% mouthwash
From the text: FIG. 3 illustrates the removal of Chlorhexidine stains seen in FIG. 1(B) by brushing the teeth for one minute with a toothbrush that has been soaked in 0.2% delmopinol. The subject with chlorhexidine staining (after the seven day usage of chlorhexidine) brushed their teeth once, for one minute, using a toothbrush soaked in a 0.2% delmopinol mouthwash.

[3] = prolonged use, some subjects, noticed by dentists in some studies; cited from earlier work

staining of the teeth [1]	staining of the tongue [1]	Compound	removal of chlorhexidine staining of the teeth [2]	staining of the teeth [3]
characteristic staining of the teeth	the tongue was also stained	[H]/N=C(\N/C(=N/[H])NCCCCCCNC(=N)NC(=N)Nc1ccc(Cl)cc1)Nc1ccc(Cl)cc1 [chlorhexidine, reference compound]	–	–
No staining was observed	No staining was observed	CCCC(CCC)CCCC1COCCN1CCO (stereo not drawn) [delmopinol, 3-(4-propyl-heptyl)-4-(2-hydroxyethyl)morpholine]	removed the staining of the teeth	mild staining of the teeth
